Assay [1] deals with T1, Recombinant human α3/β4 nicotinic acetylcholine receptors (nAChR (α3β4)) (Homo sapiens, UniProt P30926+P32297).
T1 construct: host or cells: CHO-K1
In words: Inhibition of [125I]epibatidine binding to nAChR (α3β4) cell membranes. How it is done: (§1) In order to evaluate molecular targets for reducing glutamate signaling by L-ergothioneine, nicotinic acetylcholine receptors associated with glutamate signaling were subjected to in vitro assay. The in vitro assay was commissioned to Eurofins Panlabs. The test was performed by the following method.
Recombinant human α3/β4 nicotinic acetylcholine receptors (nAChR (α3β4)) expressed in Chinese hamster ovary-derived CHO-K1 cells were used. Cell membranes (0.6 μg) of the cells expressing nAChR (α3β4) were incubated in Tris-HCl buffer (pH 7.4) with 0.05 nM [125I]epibatidine and L-ergothioneine (L-ergothioneine concentration: 30 μM, 100 μM, 300 μM, 1000 μM, or 3000 μM) at 25° C. for 60 minutes. Non-specific binding was estimated in the presence of 10 μM epibatidine. The cell membranes were filtered through a filter and washed, and the activity of L-ergothioneine to inhibit binding of substrates was evaluated using radioactivity of [125I]epibatidine as an index.

For assay [2], the target named is Recombinant human α7 nicotinic acetylcholine receptors (nAChR (α7)) (Homo sapiens, UniProt P36544). It counts as binding. Particulars: FIG. 3; 100 μM or 1000 μM; 0.4 nM [125I]-α-bungarotoxin; SH-SY5Y cell membranes.
Assay [3] concerns the target T2, Recombinant human α4/β2 nicotinic acetylcholine receptors (nAChR (α4β2)) (Homo sapiens, UniProt P17787+P43681).
T2 construct: host or cells: SH-SY5Y
In words: Inhibition of [3H]cytisine binding to nAChR (α4β2) cell membranes. Particulars: FIG. 3; 100 μM or 1000 μM; 0.6 nM [3H]cytisine; SH-SY5Y cell membranes. How it is done:
as §1
Recombinant human α4/β2 nicotinic acetylcholine receptors (nAChR (α4β2)) expressed in human neuroblastoma-derived SH-SY5Y cells were used. Cell membranes (30 μg) of the cells expressing nAChR (α4β2) were incubated in Tris-HCl buffer (pH 7.4) with 0.6 nM [3H]cytisine and L-ergothioneine (L-ergothioneine concentration: 100 μM or 1000 μM) at 4° C. for 120 minutes. Non-specific binding was estimated in the presence of 10 μM nicotine bitartrate. The cell membranes were filtered through a filter and washed, and the activity of L-ergothioneine to inhibit binding of substrates was evaluated using radioactivity of [3H]cytisine as an index.

T1 sequence (P30926 22-498): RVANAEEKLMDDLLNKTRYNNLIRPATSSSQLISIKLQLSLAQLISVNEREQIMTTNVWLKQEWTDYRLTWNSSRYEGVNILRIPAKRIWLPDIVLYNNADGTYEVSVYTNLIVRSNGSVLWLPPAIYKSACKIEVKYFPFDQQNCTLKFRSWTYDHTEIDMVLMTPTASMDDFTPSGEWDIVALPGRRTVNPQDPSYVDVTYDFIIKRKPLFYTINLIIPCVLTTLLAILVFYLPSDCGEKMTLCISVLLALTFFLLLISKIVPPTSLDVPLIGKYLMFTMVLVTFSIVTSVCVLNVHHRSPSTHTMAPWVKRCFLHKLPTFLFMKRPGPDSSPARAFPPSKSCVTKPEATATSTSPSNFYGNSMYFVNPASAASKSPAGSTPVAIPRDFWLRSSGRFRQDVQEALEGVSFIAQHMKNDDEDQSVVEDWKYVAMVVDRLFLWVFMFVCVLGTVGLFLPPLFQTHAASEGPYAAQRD
T1 sequence (P32297 32-505): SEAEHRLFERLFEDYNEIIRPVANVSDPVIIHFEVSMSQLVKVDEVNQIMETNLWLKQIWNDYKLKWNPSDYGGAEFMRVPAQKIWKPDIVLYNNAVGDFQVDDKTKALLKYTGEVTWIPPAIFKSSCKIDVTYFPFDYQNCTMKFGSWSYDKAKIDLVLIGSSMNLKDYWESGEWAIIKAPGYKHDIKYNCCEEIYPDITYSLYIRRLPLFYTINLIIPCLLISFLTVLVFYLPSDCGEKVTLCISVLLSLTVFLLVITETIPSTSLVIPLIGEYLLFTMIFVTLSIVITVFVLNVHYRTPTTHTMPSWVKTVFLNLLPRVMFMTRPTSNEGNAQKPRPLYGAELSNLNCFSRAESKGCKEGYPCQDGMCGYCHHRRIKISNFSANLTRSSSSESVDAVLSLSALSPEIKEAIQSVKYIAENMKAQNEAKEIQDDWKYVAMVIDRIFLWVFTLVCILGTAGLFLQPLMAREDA
T2 sequence (P43681 29-627 limits assumed): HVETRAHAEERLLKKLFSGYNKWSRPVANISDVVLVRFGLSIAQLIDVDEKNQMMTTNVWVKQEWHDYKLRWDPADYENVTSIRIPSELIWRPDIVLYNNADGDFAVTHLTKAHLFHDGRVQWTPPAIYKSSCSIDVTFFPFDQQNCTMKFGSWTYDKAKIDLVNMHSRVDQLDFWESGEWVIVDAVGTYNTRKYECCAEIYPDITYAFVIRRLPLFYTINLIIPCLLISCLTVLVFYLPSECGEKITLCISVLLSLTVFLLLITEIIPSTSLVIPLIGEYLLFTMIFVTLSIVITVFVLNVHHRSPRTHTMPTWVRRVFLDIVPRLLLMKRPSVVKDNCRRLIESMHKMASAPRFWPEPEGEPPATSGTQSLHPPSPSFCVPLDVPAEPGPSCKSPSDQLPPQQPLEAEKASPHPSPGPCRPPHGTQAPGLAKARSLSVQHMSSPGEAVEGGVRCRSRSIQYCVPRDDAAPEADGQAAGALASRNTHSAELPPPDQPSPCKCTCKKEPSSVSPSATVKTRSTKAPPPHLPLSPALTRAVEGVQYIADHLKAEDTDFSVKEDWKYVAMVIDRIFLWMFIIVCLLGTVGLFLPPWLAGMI
T2 sequence (P17787 26-502): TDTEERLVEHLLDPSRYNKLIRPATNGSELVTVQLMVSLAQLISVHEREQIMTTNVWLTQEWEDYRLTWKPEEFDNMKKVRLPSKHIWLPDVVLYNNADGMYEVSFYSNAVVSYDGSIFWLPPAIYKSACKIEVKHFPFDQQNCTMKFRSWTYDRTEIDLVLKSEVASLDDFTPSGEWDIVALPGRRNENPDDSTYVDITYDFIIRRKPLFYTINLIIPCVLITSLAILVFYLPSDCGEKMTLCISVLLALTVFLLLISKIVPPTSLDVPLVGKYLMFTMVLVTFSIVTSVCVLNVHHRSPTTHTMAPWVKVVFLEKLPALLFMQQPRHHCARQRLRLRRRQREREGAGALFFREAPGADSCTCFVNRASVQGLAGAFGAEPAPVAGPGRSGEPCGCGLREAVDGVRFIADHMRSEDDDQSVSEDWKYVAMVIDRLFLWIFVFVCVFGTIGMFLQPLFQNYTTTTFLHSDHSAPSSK
Sequence of Recombinant human α7 nicotinic acetylcholine receptors (nAChR (α7)) (P36544 23-502): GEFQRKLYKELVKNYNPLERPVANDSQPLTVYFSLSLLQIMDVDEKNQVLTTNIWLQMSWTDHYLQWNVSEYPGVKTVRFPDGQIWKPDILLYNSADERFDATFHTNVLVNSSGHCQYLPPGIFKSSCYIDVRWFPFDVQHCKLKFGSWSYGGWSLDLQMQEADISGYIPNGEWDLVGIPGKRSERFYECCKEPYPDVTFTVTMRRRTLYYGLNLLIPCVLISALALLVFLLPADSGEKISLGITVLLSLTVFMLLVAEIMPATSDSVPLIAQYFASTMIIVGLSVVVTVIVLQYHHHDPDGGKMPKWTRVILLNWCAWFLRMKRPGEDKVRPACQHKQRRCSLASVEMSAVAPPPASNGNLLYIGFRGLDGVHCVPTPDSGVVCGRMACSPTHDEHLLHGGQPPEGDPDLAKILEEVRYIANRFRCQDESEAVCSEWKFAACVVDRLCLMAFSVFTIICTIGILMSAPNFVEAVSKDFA

On to `C[N+](C)(C)[C@@H](Cc1c[nH]c(=S)[nH]1)C(=O)[O-]` [L-ergothioneine], for which the “activity to inhibit binding of substrates to α3β4 receptors” value in assay [1] (FIG. 3, [125I]epibatidine) was “strong activity”. In addition, the IC50 in assay [1] (five concentrations 30-3000 μM, 0.05 nM [125I]epibatidine, CHO-K1 cell membranes, 25° C., 60 minutes, read-out: 50% inhibitory concentration) was determined as 1110 µM. Also, in assay [2], the “activity to inhibit binding of substrates to α7 receptors” value is recorded as “showed the activity”. Moreover, the “activity to inhibit binding of substrates to α4β2 receptors” value in assay [3] is listed as “showed the activity”.
